Measurements: ChEMBL document CHEMBL2177072, “Design and synthesis of β-site amyloid precursor protein cleaving enzyme (BACE1) inhibitors with in vivo brain reduction of β-amyloid peptides” (J Med Chem, 2012)
The source made the active and inactive calls. No cut-off for these calls is given here.

Tests used:
Beta-secretase 1 [1] = molecular target: T1, Beta-secretase 1 (Homo sapiens, UniProt P56817); assay type: cell-based, SH-SY5Y
Beta-secretase 1 [2] = molecular target: T1, Beta-secretase 1
Beta-secretase 1 [3] = molecular target: Beta-secretase 1 (Mus musculus, UniProt P56818)
Description: Inhibition of BACE1-mediated amyloid beta 40 release in C57/BL6 mouse primary cortical neurons after overnight incubation by ELISA

Beta-secretase 2 = molecular target: T2, Beta-secretase 2 (Homo sapiens, UniProt Q9Y5Z0)
T2 sequence (Q9Y5Z0 whole entry): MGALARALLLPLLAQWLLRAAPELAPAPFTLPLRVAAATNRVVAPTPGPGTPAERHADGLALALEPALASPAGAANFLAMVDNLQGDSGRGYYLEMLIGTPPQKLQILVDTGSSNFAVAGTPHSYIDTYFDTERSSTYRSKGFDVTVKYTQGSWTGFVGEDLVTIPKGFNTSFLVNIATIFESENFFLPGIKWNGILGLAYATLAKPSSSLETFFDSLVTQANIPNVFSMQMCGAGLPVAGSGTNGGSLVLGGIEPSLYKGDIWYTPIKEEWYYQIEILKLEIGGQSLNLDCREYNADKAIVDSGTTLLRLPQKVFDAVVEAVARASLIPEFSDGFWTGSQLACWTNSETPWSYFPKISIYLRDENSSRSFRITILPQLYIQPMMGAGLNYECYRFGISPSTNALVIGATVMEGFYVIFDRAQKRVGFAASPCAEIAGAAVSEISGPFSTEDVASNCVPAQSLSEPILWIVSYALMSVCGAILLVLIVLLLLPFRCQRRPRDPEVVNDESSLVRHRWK

in vitro [4] = settings: rat, hepatocytes
in vitro [5] = settings: human, Caco-2
Description: Efflux ratio of apparent permeability from basal to apical to apical to basal side of human Caco2 cells at 10 uM after 60 mins by LC/MS analysis

physchem [6] = assay: physchem
Description: Lipophilicity, log D of the compound by RP-HPLC analysis

[7] = molecular target: Voltage-gated inwardly rectifying potassium channel KCNH2 (Homo sapiens, UniProt Q12809)
Description: Inhibition of human ERG expressed in CHO cells by IonWorks assay

in vitro [8] = settings: human, Caco-2; remark: listed apart in the source
Description: Apparent permeability from apical to basal side of human Caco2 cells at 10 uM after 60 mins by LC/MS analysis

in vivo [9] = settings: mouse, po
Description: Oral bioavailability in mouse

[10] = Ratio of free drug concentration in brain to free drug concentration in plasma in C57BL/6 mouse at 80 umol/kg, po at […]; assay type: ADME, organism-based
Brain [11] = assay: Free drug concentration in C57BL/6 mouse brain at 80 umol/kg, po at […]; assay type: ADME, organism-based; settings: in vivo
Mus musculus [12] = assay: Antialzheimer activity in C57BL/6 mouse assessed as reduction in amyloid beta 40 level in brain at 80 umol/kg, po at […] by ELISA relative to control; assay type: functional; parameters: scale not given: the % may be the effect or the level left
[13] = Fraction unbound in C57BL/6 mouse plasma at 80 umol/kg, po; assay type: ADME, organism-based
Mus musculus [14] = assay: Antialzheimer activity in C57BL/6 mouse assessed as reduction in sAPPbeta level in brain at 80 umol/kg, po; assay type: functional, organism-based
physchem [15] = assay: physchem; remark: listed apart in the source
Plasma [16] = assay: Free drug concentration in C57BL/6 mouse plasma at 80 umol/kg, po at […]; assay type: ADME, organism-based; settings: in vivo
[17] = Fraction unbound in C57BL/6 mouse brain at 80 umol/kg, po; assay type: ADME, organism-based
Mus musculus [18] = assay: Antialzheimer activity in C57BL/6 mouse assessed as reduction in amyloid beta 42 level in brain at 80 umol/kg, po; assay type: functional, organism-based
in vivo [19] = settings: mouse, po; remark: listed apart in the source
Description: Half life in po dosed mouse

[20] = Fraction unbound in C57BL/6 mouse plasma at 300 umol/kg, po; assay type: ADME, organism-based
Mus musculus [21] = organism: Mus musculus; assay: Antialzheimer activity in C57BL/6 mouse assessed as unbound brain concentration required for 20% reduction in amyloid beta 40 level in brain at 1.5 by ELISA; assay type: functional
Plasma [22] = assay: Free drug concentration in C57BL/6 mouse plasma at 300 umol/kg, po at […]; assay type: ADME, organism-based; settings: in vivo
[23] = Fraction unbound in C57BL/6 mouse brain at 300 umol/kg, po; assay type: ADME, organism-based
Mus musculus [24] = assay: Antialzheimer activity in C57BL/6 mouse assessed as reduction in amyloid beta 40 level in brain at 300 umol/kg, po at […] by ELISA relative to control; assay type: functional; parameters: scale not given: the % may be the effect or the level left
Brain [25] = assay: Free drug concentration in C57BL/6 mouse brain at 300 umol/kg, po at […]; assay type: ADME, organism-based; settings: in vivo
Mus musculus [26] = assay: Antialzheimer activity in C57BL/6 mouse assessed as reduction in sAPPbeta level in brain at 300 umol/kg, po; assay type: functional, organism-based
Mus musculus [27] = assay: Antialzheimer activity in C57BL/6 mouse assessed as reduction in amyloid beta 42 level in brain at 300 umol/kg, po; assay type: functional, organism-based

T1 sequence (P56817 whole entry): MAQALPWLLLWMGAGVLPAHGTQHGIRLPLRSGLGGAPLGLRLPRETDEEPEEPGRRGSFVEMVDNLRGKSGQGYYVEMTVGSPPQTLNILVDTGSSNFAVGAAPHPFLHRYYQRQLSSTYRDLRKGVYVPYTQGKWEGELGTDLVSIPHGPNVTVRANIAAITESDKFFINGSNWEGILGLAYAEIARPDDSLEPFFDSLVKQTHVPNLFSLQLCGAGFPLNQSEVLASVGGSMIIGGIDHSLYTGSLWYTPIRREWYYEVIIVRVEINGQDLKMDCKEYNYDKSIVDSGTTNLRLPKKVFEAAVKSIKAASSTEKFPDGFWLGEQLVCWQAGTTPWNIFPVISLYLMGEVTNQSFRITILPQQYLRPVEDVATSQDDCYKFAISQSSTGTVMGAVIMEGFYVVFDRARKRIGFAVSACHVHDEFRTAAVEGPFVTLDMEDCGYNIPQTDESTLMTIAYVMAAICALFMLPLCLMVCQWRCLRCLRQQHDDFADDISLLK
Sequence of Beta-secretase 1 (Mus musculus, UniProt P56818) (P56818 whole entry): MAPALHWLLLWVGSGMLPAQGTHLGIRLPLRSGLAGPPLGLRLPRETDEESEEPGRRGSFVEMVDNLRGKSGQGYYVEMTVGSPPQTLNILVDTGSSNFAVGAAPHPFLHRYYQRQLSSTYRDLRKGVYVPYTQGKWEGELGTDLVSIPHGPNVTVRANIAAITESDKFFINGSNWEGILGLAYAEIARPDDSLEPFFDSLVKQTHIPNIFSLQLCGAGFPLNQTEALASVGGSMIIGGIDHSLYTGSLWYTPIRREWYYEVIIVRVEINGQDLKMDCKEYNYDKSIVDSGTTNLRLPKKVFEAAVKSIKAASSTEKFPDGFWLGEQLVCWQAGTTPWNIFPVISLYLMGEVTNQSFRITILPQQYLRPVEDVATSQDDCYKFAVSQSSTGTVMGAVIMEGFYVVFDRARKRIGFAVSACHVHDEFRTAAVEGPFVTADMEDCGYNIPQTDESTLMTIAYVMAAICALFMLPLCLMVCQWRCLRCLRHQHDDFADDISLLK
Sequence of Voltage-gated inwardly rectifying potassium channel KCNH2 (Q12809 whole entry): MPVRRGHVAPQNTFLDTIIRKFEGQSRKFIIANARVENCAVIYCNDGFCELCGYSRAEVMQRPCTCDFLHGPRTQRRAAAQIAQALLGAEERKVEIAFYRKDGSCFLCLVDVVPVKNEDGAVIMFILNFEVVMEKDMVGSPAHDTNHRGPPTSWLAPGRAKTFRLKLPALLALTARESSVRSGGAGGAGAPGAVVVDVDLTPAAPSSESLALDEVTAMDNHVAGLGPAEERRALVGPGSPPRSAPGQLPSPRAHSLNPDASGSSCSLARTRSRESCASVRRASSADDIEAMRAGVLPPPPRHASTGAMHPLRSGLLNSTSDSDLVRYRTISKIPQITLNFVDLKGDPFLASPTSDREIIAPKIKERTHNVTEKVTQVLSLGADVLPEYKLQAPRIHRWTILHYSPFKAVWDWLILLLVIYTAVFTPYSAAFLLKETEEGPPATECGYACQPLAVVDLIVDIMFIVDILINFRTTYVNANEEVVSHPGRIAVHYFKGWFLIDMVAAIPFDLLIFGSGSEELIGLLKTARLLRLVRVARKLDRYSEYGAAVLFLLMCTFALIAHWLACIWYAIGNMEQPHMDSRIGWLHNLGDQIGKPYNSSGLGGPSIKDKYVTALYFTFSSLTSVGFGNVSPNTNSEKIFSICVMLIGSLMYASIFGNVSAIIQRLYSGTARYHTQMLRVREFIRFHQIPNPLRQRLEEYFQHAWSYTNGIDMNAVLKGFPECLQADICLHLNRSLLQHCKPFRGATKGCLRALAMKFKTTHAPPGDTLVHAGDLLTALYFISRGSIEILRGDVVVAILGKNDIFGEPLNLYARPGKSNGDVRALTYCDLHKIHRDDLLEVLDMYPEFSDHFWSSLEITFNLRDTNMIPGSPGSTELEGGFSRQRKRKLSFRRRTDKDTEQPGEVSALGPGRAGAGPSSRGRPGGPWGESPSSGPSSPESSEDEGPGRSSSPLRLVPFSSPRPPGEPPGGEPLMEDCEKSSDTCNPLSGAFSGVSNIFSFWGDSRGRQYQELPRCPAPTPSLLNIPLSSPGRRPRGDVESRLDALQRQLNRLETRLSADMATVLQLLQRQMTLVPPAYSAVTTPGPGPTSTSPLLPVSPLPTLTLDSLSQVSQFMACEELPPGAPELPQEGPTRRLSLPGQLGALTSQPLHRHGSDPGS

Structure (SMILES)	IC50 (Beta-secretase 1 [1])	IC50 (Beta-secretase 1 [2])	IC50 (Beta-secretase 1 [3])	hepatocyte CLint (in vitro [4])	logD (physchem [6])	other results
CCn1cc(C2(c3cccc(-c4cncc(C#N)c4)c3)N=C(N)c3c(F)cccc32)cc(C)c1=O (configuration not stated)	1.84 nM	8.26 nM	–	–	–	–
COc1c(C)cc(C2(c3cccc(-c4cncnc4)c3)N=C(N)c3c(F)cccc32)nc1C (configuration not stated)	2.92 nM	–	40 nM	–	–	Ki (Beta-secretase 2): 1700 nM
CC#Cc1cncc(-c2cccc(C3(c4ccnc(C(F)F)c4)N=C(N)c4c(F)cccc43)c2)c1 (configuration not stated)	2.97 nM	6.49 nM	–	–	–	–
N#Cc1cncc(-c2cccc(C3(c4ccnc(C(F)(F)F)c4)N=C(N)c4c(F)cccc43)c2)c1 (configuration not stated)	29.9 nM	253 nM	–	5.2 µL/min/1e6 cells	3.7	efflux ratio at 1 h, 10 µM (in vitro [5]): 0.8; IC50 [7]: 1700 nM; Papp A→B at 1 h, 10 µM (in vitro [8]): 16 ×10⁻⁶ cm/s
NC1=N[C@@](c2cccc(-c3cncnc3)c2)(c2ccnc(C(F)F)c2)c2cccc(F)c21 [AZD-3839]	–	–	51 nM	20.9 µL/min/1e6 cells	2	bioavailability (in vivo [9]): 73%; K(p,uu,brain) [10]: 0.7; Drug uptake(free) (Brain [11]): 119 nM; Activity (Mus musculus [12]): 31%; fraction unbound [13]: 0.027; Activity (Mus musculus [14]): Active; pKa (physchem [15]): 7.1; Cp(f) (Plasma [16]): 170 nM; Ki (Beta-secretase 2): 370 nM; fraction unbound [17]: 0.079; Activity (Mus musculus [18]): Active; half-life (in vivo [19]): 1.5 h
COc1ccc(C2(c3cccc(-c4cncnc4)c3)N=C(N)c3c(F)cccc32)cc1 (configuration not stated)	12.5 nM	135 nM	–	–	–	–
NC1=N[C@](c2ccnc(C(F)(F)F)c2)(c2ccc(F)c(-c3cncnc3)c2)c2cccc(F)c21	–	–	204 nM	10 µL/min/1e6 cells	3	fraction unbound [20]: 0.044; Activity (Mus musculus [21]): 114 nM; Cp(f) (Plasma [22]): 795 nM; fraction unbound [23]: 0.025; Activity (Mus musculus [24]): 50%; Drug uptake(free) (Brain [25]): 406 nM; Papp A→B at 1 h, 10 µM (in vitro [8]): 30 ×10⁻⁶ cm/s; Activity (Mus musculus [26]): Active; Activity (Mus musculus [27]): Active
NC1=NC(c2ccnc(C(F)(F)F)c2)(c2ccc(F)c(-c3cncnc3)c2)c2cccc(F)c21 (racemic)	–	–	–	6.9 µL/min/1e6 cells	3	pKa (physchem [15]): 6.4; Papp A→B at 1 h, 10 µM (in vitro [8]): 25 ×10⁻⁶ cm/s
Cc1cc(C2(c3cccc(-c4cncnc4)c3)N=C(N)c3c(F)cccc32)cn(C)c1=O (configuration not stated)	11.4 nM	60.8 nM	30 nM	–	–	Ki (Beta-secretase 2): 740 nM
COc1cc(C2(c3cccc(-c4cncnc4)c3)N=C(N)c3c(F)cccc32)ccn1 (configuration not stated)	21.5 nM	–	–	–	–	–
CCn1cc(C2(c3cccc(-c4cncc(F)c4)c3)N=C(N)c3c(F)cccc32)cc(C)c1=O (configuration not stated)	3.98 nM	–	–	–	–	–
NC1=NC(c2cccc(-c3cncnc3)c2)(c2ccnc(C(F)(F)F)c2)c2ccccc21 (configuration not stated)	2.1 nM	134 nM	–	–	–	–
NC1=NC(c2cccc(-c3cncnc3)c2)(c2ccnc(C(F)(F)F)c2)c2cccc(F)c21 (configuration not stated)	43.1 nM	–	436 nM	–	–	–
